From patent US20160138077A1, “MONITORING AND ASSESSING DEACETYLASE ENZYME ACTIVITY” (THE GENERAL HOSPITAL CORPORATION, priority 2013, published 2016)

Tests used:
Cathepsin B = target: T1, Cathepsin B (Homo sapiens, UniProt P07858); test: LCMS assay of protease enzymatic action on HP-1; assay type: biochemical; conditions: −SAHA, 5 μM HP-1, 12 hours at 37° C.
T1 construct: purchased EMD Millipore
Description: (§1) The enzymatic cleavage of HP-1 was analyzed by performing LCMS assays with sirtuin 1 and 3 (Cayman Chemicals) and the proteases chymotrypsin (Sigma-Aldrich), cathepsin (EMD Millipore), and pepsin* (Sigma-Aldrich). Solutions containing (i) vehicle with DMSO in HDAC buffer, (ii) 5 μM HP-1 in HDAC buffer, and (iii) 5 μM HP-1 and the enzyme in HDAC buffer were incubated for 12 hours at 37° C. Following incubation, a 20 μL aliquot of supernatant from each sample was analyzed by LCMS. Deacetylation of HP-1 was investigated by screening for the DHP-1 (M+H)^+ ion following positive electrospray ionization. All assay samples were analyzed in triplicate. […]
(§2) HP-1 was not altered by sirtuins 1 and 3 or the proteases chymotrypsin, cathepsin and pepsin, as determined by LCMS. […] For Cathepsin B, the cleavage of the enzyme substrate, z-RR-pNA (Santa Cruz Biotechnology, Dallas, Tex.) was monitored using a Wallac EnVision 2103 Multilabel fluorescence plate reader (PerkinElmer, Waltham, Mass.) with a 405 nm excitation filter, a 406 nm emission filter, and a gain of 150. The cleavage of the pepsin substrate, Ac-Phe-Tyr-OH (Chem-Impex Inc.), was monitored by LCMS at pH 4. […]

Chymotrypsin = target: T2, Chymotrypsin (Bos taurus, UniProt P00766); test: LCMS assay of protease enzymatic action on HP-1; assay type: biochemical; conditions: −SAHA, 5 μM HP-1, 12 hours at 37° C.
T2 construct: purchased Sigma-Aldrich
Description: as §1, §2

Pepsin = target: T3, Pepsin (Sus scrofa, UniProt P00791); test: LCMS assay of protease enzymatic action on HP-1 (HDAC buffer at pH 4); assay type: biochemical; conditions: −SAHA, 5 μM HP-1, 12 hours at 37° C.
T3 construct: purchased Sigma-Aldrich
Description: as §1, §2

HDAC3 = target: T4, HDAC3 (Homo sapiens, UniProt O15379); test: Caliper microfluidic endpoint IC50 assay; assay type: biochemical
T4 construct: purchased Cayman Chemicals
Description: HP-1 and HP-2 IC50 values for HDAC1 were determined using the Trypsin-coupled assay as well as the Caliper endpoint assay. HP-1 and HP-2 IC50 values for HDAC2, HDAC3, HDAC6 and HDAC8 were determined with the Caliper endpoint assay.
The Caliper microfluidic assay was performed at the Broad Institute exactly as previously described.^5
IC50 measurements. HP-1 and HP-2 IC50 values for HDAC1 were determined using the Trypsin-coupled assay as well as the Caliper endpoint assay. HP-1 and HP-2 IC50 values for HDAC2, HDAC3, HDAC6 and HDAC8 were determined with the Caliper endpoint assay (full experimental details in Example 1).

HeLa cells = test: Determination of HDAC activity in HeLa cells by LC-MS; assay type: cell-based; conditions: live HeLa cells, 5 μM, over 24 h
Description: HeLa cell culture and treatment with HP-1 and HP-2. HeLa cells (ATCC) were grown as a monolayer in Eagles Minimum Essential Medium (EMEM, GIBCO, BRL, Gaithersburg, Md.) with 10% Fetal Bovine Serum (FBS, GIBCO, BRL, Gaithersburg, Md.) and 1% penicillin/streptomycin ([…]). All cell culture dishes were maintained in a humidified atmosphere with 5% CO2 at 37° C.
Determination of HDAC activity in HeLa cells by LC-MS. HDAC activity in HeLa cells was analyzed by performing an LCMS assay. Solutions of HP-1 and HP-2 (200 mM each) were prepared in DMSO and diluted in HDAC buffer to a final concentration of 100 μM. […] Cells were scraped off of the flask, lysed in milipore water (90 μL) using a mechanical homogenizer, centrifuged (at 14,000×g for 2 min) and 20 μL aliquot of supernatant from each sample was analyzed by LCMS. […] The peak area for each detected compound was measured to determine the % conversion. For HP-1, the corresponding (M+H)^+ ion was detected. […] The peak area for each detected compound was measured to determine the % conversion of each probe. […]
Determination of HDAC activity in HeLa cells by LC-MS. […] Cells were scraped off of the flask, lysed in Millipore water using a mechanical homogenizer, and supernatant of the lysed samples were analyzed by LC-MS. […] The peak area for each detected compound was measured to determine the % conversion versus time (full experimental details in Example 1).

T3 sequence (P00791 60-385): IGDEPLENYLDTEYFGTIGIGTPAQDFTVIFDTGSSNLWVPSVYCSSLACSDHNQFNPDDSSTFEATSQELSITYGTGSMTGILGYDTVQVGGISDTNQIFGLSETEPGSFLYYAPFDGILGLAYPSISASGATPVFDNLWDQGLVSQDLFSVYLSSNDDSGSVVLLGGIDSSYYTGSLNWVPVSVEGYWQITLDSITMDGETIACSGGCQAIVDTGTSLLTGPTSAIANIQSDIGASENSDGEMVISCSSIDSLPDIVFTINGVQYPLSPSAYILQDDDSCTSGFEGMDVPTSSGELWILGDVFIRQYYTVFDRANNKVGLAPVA
T4 sequence (O15379 whole entry): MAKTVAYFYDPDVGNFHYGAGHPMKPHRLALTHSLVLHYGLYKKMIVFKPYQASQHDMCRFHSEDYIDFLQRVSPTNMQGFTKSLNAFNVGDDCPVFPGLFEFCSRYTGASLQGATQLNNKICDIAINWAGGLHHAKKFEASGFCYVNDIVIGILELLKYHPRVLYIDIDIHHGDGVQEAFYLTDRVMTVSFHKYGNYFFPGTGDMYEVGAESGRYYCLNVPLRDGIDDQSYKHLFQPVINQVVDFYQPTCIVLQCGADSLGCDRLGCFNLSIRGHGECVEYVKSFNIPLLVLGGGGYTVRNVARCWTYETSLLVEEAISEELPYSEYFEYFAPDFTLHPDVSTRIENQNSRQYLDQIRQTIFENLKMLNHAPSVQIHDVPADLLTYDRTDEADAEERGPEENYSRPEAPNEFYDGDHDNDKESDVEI
T4 sequence (Q9Y618 395-489 partner limits assumed): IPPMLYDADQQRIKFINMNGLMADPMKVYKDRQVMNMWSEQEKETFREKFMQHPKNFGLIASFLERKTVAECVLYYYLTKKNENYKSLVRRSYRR

CC(=O)NC=CCCCCNC(=O)CCCCCNc1ccc([N+](=O)[O-])c2nonc12 [HP-1]
% HP-1 to DHP-1 (Cathepsin B): 0% | % HP-1 to DHP-1 (Chymotrypsin): 0% | % HP-1 to DHP-1 (Pepsin): 0% | IC50 (HDAC3): 59 µM | HP-1 cleaved (HeLa cells; absence of SAHA, LCMS of supernatants and lysates): 80% | Cleavage of HP-1 (HeLa cells; addition of SAHA (10 μM)): 20%
